The values that follow come from patent US4753928A, “Process for obtaining sexual products from mammals suitable for natural or artificial fertilization” (INNOFINANCE Altalanos Innovacios Pengintezet, priority 1985, dated 1988).

The subject of one test is infant female rats. Description: Super-ovulation induced in infant female rats. The test is classed as in vivo. The following applies: out of 60 21-day old rats; i.p., 1-8 days, 1 or 2 μg daily or twice daily, finished with 5 or 10 μg. How it is done:
60 pieces of 21-day old infant rats weighing […] were treated with D-Phe^6 -Gln^8 -GnRH in normal saline solution intraperitoneally. The animals, depending on the treatment they were having, were placed into different groups. In the series of treatments lasting 1-8 days, 1 and 2 μg doses, respectively, were administered daily and twice daily. Treatments were finished with 5 and 10 μg doses, respectively.
After treatment all animals were killed with vapour of ether and their ovaries were removed after the animals died and 24 hours after the last treatment. Evaluation was done visually and from hystological samples. We found several developing follicles in the ovaries of the control animals, but not one of them was of Graf-follicle size, and neither corpur luteum, nor corpus haemorrhagicum could be detected. On the other hand, in all treated groups hormonal effect could be seen which made itself evident by the growing of follicles, by their turning into Graf-follicles, by their ovulation and the forming of regular corpus luteum. Enlarging of the oviduct and the uterus was also evident. […] In the group that received for 4 days 2 μg of GnRH analogue twice daily and on the 4th day the 2 μg treatment was followed by a 10 μg dose, in the ovary of all animals immediately before ovulation softened Graf follicles could be observed in large numbers. […]

The next test concerns infant domestic rabbits. Description: Inducing super-ovulation in infant domestic rabbits. It counts as in vivo, rabbit. The following applies: 5 μg twice daily 3 days i.p., 50 μg on 4th day, after 26 hours; 42-day old rabbits. Here is the method:
20 42-day old rabbit whelps of the white pearl variety reared under large scale farming conditions were administered twice daily for three days 5 μg of D-Phe^6, Gln^8 -GnRH analogue intraperitoneally. Then the animals were divided into two groups and the one half of them was treated with 50 μg of active ingredient on the 4th day while the other half was killed with vapour of ether before treatment began. Developed follicles of this group were counted and used as control in determining the effect of the 50 μg dose. From the group kept alive, two animals were selected and through laparoscope probing their ovulation process was monitored for 10 hours while the animals were kept under narcosis (abdominal cavity was mirrored).

The next test has as its system infant female pigs. The experiment in a line: Inducing super-ovulation in infant pigs. The following applies: 10 μg twice daily 6 days i.m., 100 μg on 7th day, after 41 hours; 100-day old pigs. It counts as in vivo. Here is the method:
20 100-day old infant female pigs were treated for 6 days, twice daily, with 10 μg doses each consisting of D-Phe^6 -Gln^8 -GnRH analogue administered intramuscularly. In the test half side of the ovaries in the control animals was removed and, by using the test method detailed in Example 3, the number of the Graf-follicles and of corpora lutea formed was compared. Occurrence of ovulation was detected by laparoscopy. […] Treatment of these animals produced similar results as described in Examples 1 to 3.

The next test relates to bison bull. Description: Inducing spermiogenesis of bison bull in seasonal oligospermia. The settings on record: 55th day. It counts as in vivo. The text has this: From bison bull belonging to Zoo and weighing 700 kg, under narcosis and by electrical means a sperm sample was obtained and it was established that it was in a seasonal oligospermial state. Symptoms of this were the following: under microscope magnifying 1500 times and used in sperm evaluation the number of sperm found was 5-20 and defective sperms reached 75-80%. The density of the ejaculate was 0.5. Sperms of this quality are unsuitable for fertilization. Thereafter, twice weekly the animal was treated intramuscularly with 200-200 μg dose each of D-phe^6, Gln^8 -GnRH analogue, using the compressed air injection method. On the 55th day following commencement of treatment, under narcosis and with a time lapse of one hour the animal was ejaculated twice. The two ejaculates were combined; their density was 4, their motility 55%. The thus-obtained sperms were deep frozen, then the decrease of motility as a result of deep freezing was checked: this was only 5%.

For a further test, the system named is red fox males. Description: Inducing spermiogenesis of red fox in seasonal oligospermia. The test is classed as in vivo, Vulpes vulpes. The source says: We have attempted to induce spermiogenesis of red fox males kept in Zoo and being in seasonal oligospermia with the aim that pure bred silver and blue foxes kept under farming scale conditions might be inseminated for the production of high-quality hybrid furs. […] Between unoestrus of the various sub-species is a difference of several months (red fox: January; blue fox: April and May). Results of the test were compared to population being in seasonal unoestrus where the average quantity of ejaculate was 2 ml, density 3 and motility 50-60%. This was taken as physiological value. During the test 5 sexually mature red fox males of 8 kg average weight were treated in the month of April, twice weekly with 1, 5, 10, and 50 μg doses of D-Phe^6, Gln^8 -GnRH analogue for seven weeks. On the third week following commencement of treatment sperm sample was taken. In the sample sperm count was 70% of the physiological value, and the number of degenerated sperm was over 40%. Most of the deformed forms were of young formation (plasma droplet of neck and middle part). […] (Males were separated from females, thus they had no opportunity to copulate.) Sperm samples were put into groups according to quality, then put into deep freeze. […] By ejaculating the 5 foxes once each, 56 doses of sperms suitable for fertilizing were obtained. In this way industrial technology service was provided for the production of quality furs.

The test system of the next test is potential breeding sows. Description: Inducing first successful rutting of female piglets in puberty. The test is classed as in vivo, pigs. The settings on record: treated group of 30. How it is done: For our tests 60 potential breeding sows were selected from a stock of 200 sows available at the farm, on the basis of best growing vigor and feed conversion determined by industrial technology. These animals were put into 2 random groups of 30 each. Both groups, also according to industrial technology, were kept without food and drink for 24 hours. Animals at time of selection were injected intramuscularly with D-Phe^6, Gln^8 -GnRH analogue diluted in normal saline solution, then injections were repeated with 20 μg doses each from the same analogue twice with 24 hours intervals. The first rutting animal appeared 5 days after selection both in the untreated control group and in the treated group. Both groups were kept in the same sty, air-space, under similar conditions for 26 days as permitted in the industrial farming technology. During this time 3 animals (10%) from the untreated control and 21 animals (70%) from the treated stock rutted successfully. […] In this test series exact timing of ovulation was not amongst aims since only a few boars were available. For this reason, aim of the treatment was "the first successful rutting" within 26 days. 10% of the sows in farrow was a result acceptable to industrial farming average, thus the increase to 70% as a result of treatment means a very significant economic advantage.

Where a SMILES comes first, the peptide text is derived from it. [ ]: non-standard residue; d: D form. pGlu = O=C1CC[C@@H](C(=O)O)N1

For the compound `CC(C)C[C@H](NC(=O)[C@@H](Cc1ccccc1)NC(=O)[C@H](Cc1ccc(O)cc1)NC(=O)[C@H](CO)NC(=O)[C@H](Cc1c[nH]c2ccccc12)NC(=O)[C@H](Cc1c[nH]cn1)NC(=O)[C@@H]1CCC(=O)N1)C(=O)N[C@@H](CCC(N)=O)C(=O)N1CCC[C@H]1C(=O)NCC(N)=O` [D-Phe^6, Gln^8 -GnRH analogue, D-Phe^6, Gln^8 -GnRH] ([pGlu]HWSY[dF]LQPG-NH2), the “animals that did not react to the treatment” value in the test on infant female rats stood at 4. Further, the “ovulations and corpora haemorrhagica in each animal” value in the test on infant domestic rabbits is reported as 30-40. Moreover, in the test with infant female pigs, the ovulations was 15-36. For the same compound, the “decrease of motility as a result of deep freezing” value in the test with bison bull is listed as 5%. Besides, the density of ejaculate is reported as 4 with bison bull (200 μg i.m. twice weekly, two ejaculates combined) and 3 in the test on red fox males (7 weeks). The sperm motility with bison bull (two ejaculates combined) was found to be 55%; with red fox males (7 weeks, physiological value 50-60%), 65%. Further, the “doses of sperms suitable for fertilizing obtained” value in the test on red fox males (5 foxes ejaculated once each) is on record as 56. The compound also registered a motility after remelting with red fox males (after dilution and deep freeze at -196° C.) of 45%. Also, the degenerated sperm result in the test on red fox males (third week) is recorded as “over 40%”. In addition, the “sperm count relative to the physiological value” in the test with red fox males (third week, twice weekly 1, 5, 10 and 50 μg doses) came to 70%. In the test on potential breeding sows (three i.m. injections at 24 h intervals, 20 μg), the “animals that rutted successfully within 26 days” value turned out to be 21 animals. The “share of animals that rutted successfully within 26 days” value in the test on potential breeding sows (untreated control 10%) turned out to be 70%.
